The values below come from publication PMC7717120 (Bioorganic & medicinal chemistry letters, 2015).

“Also recorded” adds a separate entry of the source.

One series has as its system HIV-1. The format is cell-based.
The subject of the next series is Vero cells. In words: Cytotoxicity in Vero cells. The format is cell-based, African Green monkey.
The next series deals with primary human PBM cells. The series is described as follows: Cytotoxicity in primary human PBM cells. The format is cell-based.

`Cc1c2c(nn1CC(=O)NCc1ccccc1Br)-c1ccccc1S(=O)(=O)N2C` [Compound 6d]: in the series with HIV-1, the “Anti-HIV-1 activity (in words)” value is given as “active”. In the series with Vero cells, the “Toxicity in Vero cells (in words)” value is listed as “toxic”. The “Toxicity in CEM cells (in words)” value with CEM cells was “toxic”.

With `Cc1c2c(nn1CC(=O)NCc1ccccc1Cl)-c1ccccc1S(=O)(=O)N2C` [Compound 6a], the “Anti-HIV-1 activity (in words)” value in the series on HIV-1 is on record as “active”. In addition, the “Toxicity in primary human PBM cells (in words)” value with primary human PBM cells was “no toxicity”. Also, the “Toxicity in Vero cells (in words)” value in the series on Vero cells is “toxic; also recorded: displayed toxicity”. For the same compound, the “Toxicity in CEM cells (in words)” value with CEM cells is given as “no toxicity”.

For `Cc1c2c(nn1CC(=O)NCc1ccc(F)cc1)-c1ccccc1S(=O)(=O)N2C` [Compound 6c], in the series with CEM cells, the “Toxicity in CEM cells (in words)” value is given as “toxic”.

Regarding `Cc1c2c(nn1CC(=O)Nc1ccccc1)-c1ccccc1S(=O)(=O)N2C` [Compound 7a], the “Anti-HIV-1 activity (in words)” value in the series with HIV-1 is “effective inhibitors; also recorded: active”.

With `COc1cccc(NC(=O)Cn2nc3c(c2C)N(C)S(=O)(=O)c2ccccc2-3)c1` [Compound 7e], the “Anti-HIV-1 activity (in words)” value in the series with HIV-1 is given as “effective inhibitors; also recorded: active”. Also, the “Toxicity in Vero cells (in words)” value with Vero cells is listed as “no toxicity”.

As for `COc1ccc(CNC(=O)Cn2nc3c(c2C)N(C)S(=O)(=O)c2ccccc2-3)cc1` [Compound 6g], in the series on HIV-1, the “Anti-HIV-1 activity (in words)” value was “active”. In addition, the “Toxicity in primary human PBM cells (in words)” value in the series with primary human PBM cells is reported as “no toxicity”. Further, the “Toxicity in Vero cells (in words)” value in the series with Vero cells is listed as “no toxicity”. In the series on CEM cells, the “Toxicity in CEM cells (in words)” value is listed as “no toxicity”.

On to `Cc1c2c(nn1CC(=O)Nc1ccccc1F)-c1ccccc1S(=O)(=O)N2C` [Compound 7b], for which, in the series on HIV-1, the “Anti-HIV-1 activity (in words)” value is reported as “effective inhibitors; also recorded: active”.

Consider `Cc1c2c(nn1CC(=O)Nc1cccc(Br)c1)-c1ccccc1S(=O)(=O)N2C` [Compound 7d], for which the “Anti-HIV-1 activity (in words)” value with HIV-1 is listed as “effective inhibitors; also recorded: active”.

Regarding `COc1ccccc1CNC(=O)Cn1nc2c(c1C)N(C)S(=O)(=O)c1ccccc1-2` [Compound 6e], the “Anti-HIV-1 activity (in words)” value with HIV-1 was “active”. Besides, the “Toxicity in primary human PBM cells (in words)” value in the series with primary human PBM cells was “no toxicity”. In the series on Vero cells, the “Toxicity in Vero cells (in words)” value was “no toxicity”. The “Toxicity in CEM cells (in words)” value with CEM cells is recorded as “no toxicity”.

Turning to `Cc1ccc(CNC(=O)Cn2nc3c(c2C)N(C)S(=O)(=O)c2ccccc2-3)cc1` [Compound 6i], the “Anti-HIV-1 activity (in words)” value with HIV-1 is “active”. Further, the “Toxicity in primary human PBM cells (in words)” value in the series with primary human PBM cells is listed as “no toxicity”. Further, the “Toxicity in Vero cells (in words)” value with Vero cells is given as “no toxicity”. Further, the “Toxicity in CEM cells (in words)” value in the series with CEM cells is recorded as “no toxicity”.

Regarding `COc1cccc(CNC(=O)Cn2nc3c(c2C)N(C)S(=O)(=O)c2ccccc2-3)c1` [Compound 6f], in the series on primary human PBM cells, the “Toxicity in primary human PBM cells (in words)” value is recorded as “toxic”. In addition, the “Toxicity in Vero cells (in words)” value with Vero cells is “toxic”. The “Toxicity in CEM cells (in words)” value in the series with CEM cells was “toxic”.

As for `Cc1c2c(nn1CC(=O)Nc1ccccc1Br)-c1ccccc1S(=O)(=O)N2C` [Compound 7c], in the series with HIV-1, the “Anti-HIV-1 activity (in words)” value is reported as “effective inhibitors; also recorded: active”.
